{"source": "paper PMC6629894", "about": "“Ruthenium Complexes Containing Heterocyclic Thioamidates Trigger Caspase-Mediated Apoptosis Through MAPK Signaling in Human Hepatocellular Carcinoma Cells” (Frontiers in Oncology, 2019)", "key": {"[1]": {"test_system": "SCC-4 (human oral squamous cell carcinoma)", "assay": "Alamar blue cytotoxicity assay, 72 h", "assay_type": "cell-based", "text": "(§1) The cell lines HepG2 (human hepatocellular carcinoma), HL-60 (human promyelocytic leukemia), K-562 (human chronic myelogenous leukemia), B16-F10 (mouse melanoma), MCF-7 (human breast carcinoma), HCT116 (human colon carcinoma), HSC-3 (human oral squamous cell carcinoma), SCC-4 (human oral squamous cell carcinoma), MRC-5 (human lung fibroblast), WT SV40 MEF (wild-type immortalized mouse embryonic fibroblast), and BAD KO SV40 MEF (BAD gene knockout immortalized mouse embryonic fibroblasts) were obtained from the American Type Culture Collection (ATCC, Manassas, VA, USA). Cells were cultured in RPMI 1640 medium (Gibco-BRL, Gaithersburg, MD, USA) with 10% fetal bovine serum (Life, Carlsbad, CA, USA), 2 mM L-glutamine (Vetec Química Fina, Duque de Caxias, RJ, Brazil) and 50 μg/mL gentamycin (Life). For all experiments, adherent cells were collected by treatment with 0.25% trypsin-EDTA solution (Gibco-BRL). All cell lines were cultured in flasks at 37°C in 5% CO2 and were subcultured every 3–4 days to maintain exponential growth. All cell lines were tested for mycoplasma using a mycoplasma staining kit (Sigma-Aldrich Co.) to validate that the cells that were used were free from contamination.\n(§2) Cytotoxicity was measured colorimetrically using an Alamar blue method that was performed as previously described ([20], [21]). Cells were seeded in 96-well plates for all experiments (7 × 10^4 cells/mL for adherent cells or 3 × 10^5 cells/mL for suspension cells in 100 μL of medium) and incubated overnight at 37°C with 5% CO2 to allow for adherence. The complexes were dissolved in 0.5% dimethyl sulfoxide (DMSO, Vetec Química Fina) at eight different concentrations from 0.19 to 25 μg/mL and were added to each well and incubated for 72 h. The negative control was treated with the vehicle (0.5% DMSO) that was used to solubilize and dilute the complexes. […] Four (for cell lines) or 24 h (for PBMCs) before the end of incubation, 20 μL of a stock solution (0.312 mg/mL) of resazurin (Sigma-Aldrich Co.) was added to each well. Absorbance was measured at 570 and 600 nm using a SpectraMax 190 Microplate Reader (Molecular Devices, Sunnyvale, CA, USA)."}, "human topoisomerase IB": {"test_system": "human topoisomerase IB", "set-up": "method as in PMID 26795676", "conditions": "ref [18], [19]; cited from earlier work"}, "[2]": {"test_system": "HL-60 (human promyelocytic leukemia)", "assay": "Alamar blue cytotoxicity assay, 72 h", "assay_type": "cell-based", "text": "as §1, §2"}, "[3]": {"test_system": "HCT116 (human colon carcinoma)", "assay": "Alamar blue cytotoxicity assay, 72 h", "assay_type": "cell-based", "conditions": "PBMCs vs HCT116", "text": "as §1, §2"}, "[4]": {"test_system": "HSC-3 (human oral squamous cell carcinoma)", "assay": "Alamar blue cytotoxicity assay, 72 h", "assay_type": "cell-based", "conditions": "PBMCs vs HSC-3", "text": "as §1, §2"}, "B16-F10 (mouse melanoma)": {"test_system": "B16-F10 (mouse melanoma)", "assay": "Alamar blue cytotoxicity assay, 72 h", "assay_type": "cell-based", "conditions": "for IC50: read-out: IC50 and 95% CI, B16-F10, 72 h", "text": "as §1, §2"}, "[5]": {"test_system": "MCF-7 (human breast carcinoma)", "assay": "Alamar blue cytotoxicity assay, 72 h", "assay_type": "cell-based", "text": "as §1, §2"}, "[6]": {"test_system": "WT SV40 MEF (wild-type immortalized mouse embryonic fibroblast)", "assay": "Alamar blue cytotoxicity assay, 72 h", "assay_type": "cell-based", "conditions": "read-out: IC50 and 95% CI"}, "[7]": {"test_system": "BAD KO SV40 MEF (BAD gene knockout immortalized mouse embryonic fibroblasts)", "assay": "Alamar blue cytotoxicity assay, 72 h", "assay_type": "cell-based", "conditions": "read-out: IC50 and 95% CI"}, "advanced HCC": {"test_system": "advanced HCC", "set-up": "method as in PMID 18650514, PMID 28604110, PMID 29533189", "conditions": "ref [2]–[4]; cited from earlier work"}}}
{"smiles": "O=C1[O][Pt]2([NH][C@@H]3CCCC[C@H]3[NH]2)[O]C1=O", "note": "[oxaliplatin, reference compound]", "values": [{"measurement": "IC50", "setting": "[1]; read-out: IC50 and 95% CI, SCC-4, 72 h", "value": 7.7, "unit": "µM"}]}
{"smiles": "F[P-](F)(F)(F)(F)F.Nc1cc(N)nc([S-])n1.[Ru+2].c1ccc(-c2ccccn2)nc1.c1ccc(P(CCCCP(c2ccccc2)c2ccccc2)c2ccccc2)cc1", "note": "[Complex 3, [Ru(dmp)(bipy)(dppb)]PF6]", "values": [{"measurement": "supercoiled DNA relaxation mediated by human topoisomerase IB", "setting": "human topoisomerase IB", "value": "inhibit the supercoiled DNA relaxation"}, {"measurement": "Selectivity index (SI = IC50 [noncancerous cells]/IC50 [cancer cells])", "setting": "[2]; MRC-5 vs HL-60", "value": 1.1}, {"measurement": "Selectivity index (SI = IC50 [noncancerous cells]/IC50 [cancer cells])", "setting": "[2]; PBMCs vs HL-60", "value": 2.6}, {"measurement": "Selectivity index (SI = IC50 [noncancerous cells]/IC50 [cancer cells])", "setting": "[3]", "value": 2.2}, {"measurement": "Selectivity index (SI = IC50 [noncancerous cells]/IC50 [cancer cells])", "setting": "[4]", "value": 2.5}, {"measurement": "IC50", "setting": "B16-F10 (mouse melanoma)", "value": 3.9, "unit": "µM"}, {"measurement": "Selectivity index (SI = IC50 [noncancerous cells]/IC50 [cancer cells])", "setting": "[1]; MRC-5 vs SCC-4", "value": 1.1}, {"measurement": "Selectivity index (SI = IC50 [noncancerous cells]/IC50 [cancer cells])", "setting": "[5]; PBMCs vs MCF-7", "value": 1.5}, {"measurement": "IC50", "setting": "[5]; read-out: IC50 and 95% CI, MCF-7, 72 h", "value": 8.7, "unit": "µM"}]}
{"smiles": "N.N.[Cl][Pt][Cl]", "note": "[cisplatin, reference compound]", "values": [{"measurement": "IC50", "setting": "[6]", "value": 36.9, "unit": "µM"}, {"measurement": "IC50", "setting": "[7]", "value": 47.3, "unit": "µM"}]}
{"smiles": "F[P-](F)(F)(F)(F)F.O=C(O)c1ccc([S-])nc1.[Ru+2].c1ccc(-c2ccccn2)nc1.c1ccc(P(CCCCP(c2ccccc2)c2ccccc2)c2ccccc2)cc1", "note": "[Complex 4, [Ru(mpca)(bipy)(dppb)]PF6]", "values": [{"measurement": "supercoiled DNA relaxation mediated by human topoisomerase IB", "setting": "human topoisomerase IB", "value": "inhibit the supercoiled DNA relaxation"}, {"measurement": "Selectivity index (SI = IC50 [noncancerous cells]/IC50 [cancer cells])", "setting": "[2]; PBMCs vs HL-60", "value": 2.6}, {"measurement": "IC50", "setting": "[2]; read-out: IC50 and 95% CI, HL-60, 72 h", "value": 8.7, "unit": "µM"}, {"measurement": "Selectivity index (SI = IC50 [noncancerous cells]/IC50 [cancer cells])", "setting": "B16-F10 (mouse melanoma); PBMCs vs B16-F10", "value": 1.3}, {"measurement": "IC50", "setting": "B16-F10 (mouse melanoma)", "value": 17.7, "unit": "µM"}]}
{"smiles": "CNC(=O)c1cc(Oc2ccc(NC(=O)Nc3ccc(Cl)c(C(F)(F)F)c3)cc2)ccn1", "note": "[sorafenib]", "values": [{"measurement": "prolongation of survival", "setting": "advanced HCC", "value": 3, "unit": "months"}]}
